Reference: ChEMBL document CHEMBL4732256, “Synthesis and biological activities of novel mitochondria-targeted artemisinin ester derivatives” (Bioorg Med Chem Lett, 2021)
Active and inactive are the calls of the source. The rule behind the calls is not given here.

How the values were obtained:
SMMC-7721 = test: Cytotoxicity against human SMMC-7721 cells assessed as reduction in cell viability by MTT assay; format: functional, cell-based
J82 = test: Cytotoxicity in human J82 cells assessed as reduction in cell viability by MTT assay; format: functional, cell-based
HUVEC = test: Cytotoxicity against HUVEC assessed as reduction in cell viability by MTT assay; format: cell-based; settings: Homo sapiens
HepG2 = test: Cytotoxicity against human HepG2 cells assessed as reduction in cell viability by MTT assay; format: functional, cell-based
OVCAR-3 [1] = test: Cytotoxicity against human OVCAR3 cells assessed as reduction in cell viability by MTT assay; format: functional, cell-based
A549 [2] = test: Cytotoxicity against human A549 cells assessed as reduction in cell viability by MTT assay; format: functional, cell-based
OVCAR-3 [3] = test: Induction of apoptosis in human OVCAR-3 cells assessed as necrotic cell at 10 uM after 48 hrs by Annexin V-FITC/PI staining based flow cytometry (reference value: 0.00%); format: functional
OVCAR-3 [4] = test: Induction of heme-mediated cell death in human OVCAR-3 cells assessed as reduction in cell viability at 3 to 30 uM pretreated with succinyl-acetone followed by compound addition by Hoechst 33258 staining based assay; settings: dose 3-30 µM
OVCAR-3 [5] = test: Potency index, ratio of cisplatin IC50 to test compound IC50 for human OVCAR-3 cells; format: functional
OVCAR-3 [6] = test: Induction of ROS generation in human OVCAR-3 cells measured after 48 hrs by DCFH-DA staining based fluorescence microscopy; format: functional, cell-based; settings: dose 1-10 µM
[7] = Selectivity index ratio of IC50 for HUVEC to IC50 for human OVCAR3 cells
OVCAR-3 [8] = test: Induction of apoptosis in human OVCAR-3 cells assessed as viable cell at 10 uM after 48 hrs by Annexin V-FITC/PI staining based flow cytometry (reference value: 98.3%); format: functional
A549 [9] = test: Potency index, ratio of cisplatin IC50 to test compound IC50 for human A549 cells; format: functional
OVCAR-3 [10] = test: Induction of apoptosis in human OVCAR-3 assessed as nuclear rounding measured after 48 hrs by Hoechst 33258 staining based fluorescence microscopic analysis; format: functional, cell-based; settings: dose 3-10 µM
OVCAR-3 [11] = test: Induction of apoptosis in human OVCAR-3 cells assessed as early apoptotic cell at 10 uM after 48 hrs by Annexin V-FITC/PI staining based flow cytometry (reference value: 1.58%); format: functional
OVCAR-3 [12] = test: Cytotoxicity against human OVCAR-3 cells at 1 to 10 uM measured after 72 hrs in presence of N-acetyl cysteine by MTT assay; format: functional, cell-based; settings: dose 1-10 µM
OVCAR-3 [13] = test: Induction of mitochondrial membrane potential loss in human OVCAR-3 cells assessed as mitochondrial depolarization by measuring green fluorescence at 3 uM measured after 48 hrs by JCI staining based fluorescence microscopy (reference value: 3.3 %); format: functional
OVCAR-3 [14] = test: Induction of heme-mediated cell death in human OVCAR-3 cells assessed as reduction in cell viability at 3 to 30 uM pretreated with delta-aminolevulinic acid followed by compound addition by Hoechst 33258 staining based assay; settings: dose 3-30 µM
OVCAR-3 [15] = test: Induction of ROS generation in human OVCAR-3 cells at 1 to 10 uM measured after 48 hrs in presence of N-acetyl cysteine by DCFH-DA staining based fluorescence microscopy; format: functional, cell-based; settings: dose 1-10 µM
OVCAR-3 [16] = test: Induction of apoptosis in human OVCAR-3 assessed as nuclear blebbing measured after 48 hrs by Hoechst 33258 staining based fluorescence microscopic analysis; format: functional, cell-based; settings: dose 3-10 µM
OVCAR-3 [17] = test: Induction of mitochondrial membrane potential loss in human OVCAR-3 cells assessed as mitochondrial depolarization by measuring green fluorescence at 30 uM measured after 48 hrs by JCI staining based fluorescence microscopy (reference value: 3.3 %); format: functional
OVCAR-3 [18] = test: Induction of apoptosis in human OVCAR-3 assessed as nuclear shrinkage measured after 48 hrs by Hoechst 33258 staining based fluorescence microscopic analysis; format: functional, cell-based; settings: dose 3-10 µM
OVCAR-3 [19] = test: Induction of mitochondrial membrane potential loss in human OVCAR-3 cells assessed as mitochondrial depolarization by measuring green fluorescence at 10 uM measured after 48 hrs by JCI staining based fluorescence microscopy (reference value: 3.3 %); format: functional
OVCAR-3 [20] = test: Induction of apoptosis in human OVCAR-3 cells assessed as late apoptotic cell at 10 uM after 48 hrs by Annexin V-FITC/PI staining based flow cytometry (reference value: 0.118%); format: functional
OVCAR-3 [21] = test: Induction of apoptosis in human OVCAR-3 cells assessed as necrotic cell at 10 uM after 48 hrsin presence of 4C-TPPBr by Annexin V-FITC/PI staining based flow cytometry (reference value: 0.00%); format: functional; settings: time 48 hrs
OVCAR-3 [22] = test: Induction of apoptosis in human OVCAR-3 cells assessed as early apoptotic cell at 10 uM after 48 hrs in presence of 4C-TPPBr by Annexin V-FITC/PI staining based flow cytometry (reference value: 1.58%); format: functional
OVCAR-3 [23] = test: Induction of apoptosis in human OVCAR-3 cells assessed as viable cell at 10 uM after 48 hrs in presence of 4C-TPPBr by Annexin V-FITC/PI staining based flow cytometry (reference value: 98.3%); format: functional
OVCAR-3 [24] = test: Induction of apoptosis in human OVCAR-3 cells assessed as late apoptotic cell at 10 uM after 48 hrs in presence of 4C-TPPBr by Annexin V-FITC/PI staining based flow cytometry (reference value: 0.118%); format: functional

Row | Compound | IC50 (SMMC-7721) [µM] | IC50 (J82) [µM] | IC50 (HUVEC) [µM] | IC50 (HepG2) [µM] | IC50 (OVCAR-3 [1]) [µM] | IC50 (A549 [2]) [µM] | Activity (OVCAR-3 [3]) [%] | Activity (OVCAR-3 [8]) [%] | Activity (OVCAR-3 [11]) [%] | Activity (OVCAR-3 [20]) [%] | also measured
1 | C[C@H]1[C@H](OC(=O)CCC(=O)OCCC[P+](c2ccccc2)(c2ccccc2)c2ccccc2)O[C@@H]2O[C@@]3(C)CC[C@H]4[C@H](C)CC[C@@H]1[C@@]24OO3 | 23.6 | 43.8 | 18.3 | 13 | 16.6 | 5.5 | – | – | – | – | –
2 | C[C@H]1[C@H](OC(=O)CCCC[P+](c2ccccc2)(c2ccccc2)c2ccccc2)O[C@@H]2O[C@@]3(C)CC[C@H]4[C@H](C)CC[C@@H]1[C@@]24OO3.[Br-] | 18 | 41.9 | 24.5 | 5.2 | 3 | 4.7 | 0.078 | 85.4 | 10.5 | 4.04 | Activity (OVCAR-3 [4]): inactive; Ratio IC50 (OVCAR-3 [5]): 4.4; Activity (OVCAR-3 [6]): Active; Ratio IC50 [7]: 8.2; Ratio IC50 (A549 [9]): 4.8; Activity (OVCAR-3 [10]): Dose-dependent effect; Activity (OVCAR-3 [12]): inactive; Activity (OVCAR-3 [13]): 17.2%; Activity (OVCAR-3 [14]): inactive; Activity (OVCAR-3 [15]): inactive; Activity (OVCAR-3 [16]): Dose-dependent effect; Activity (OVCAR-3 [17]): 95.5%; Activity (OVCAR-3 [18]): Dose-dependent effect; Activity (OVCAR-3 [19]): 55.4%
3 | C[C@H]1[C@H](OC(=O)CCC(=O)O)O[C@@H]2O[C@@]3(C)CC[C@H]4[C@H](C)CC[C@@H]1[C@@]24OO3 [ARTESUNATE] | 72.3 | 75.7 | 86.1 | 47 | 67.3 | 5.4 | – | – | – | – | –
4 | C[C@H]1[C@@H](O)O[C@@H]2O[C@@]3(C)CC[C@H]4[C@H](C)CC[C@@H]1[C@@]24OO3 [ARTENIMOL] | 61.4 | 146 | 180 | 73.6 | 87.2 | 27.8 | 0.062 | 94.4 | 3.61 | 1.97 | Activity (OVCAR-3 [21]): 0.01%; Activity (OVCAR-3 [22]): 2.74%; Activity (OVCAR-3 [23]): 95.7%; Activity (OVCAR-3 [24]): 1.56%
5 | C[C@H]1[C@H](OC(=O)CCC(=O)OCCCCC[P+](c2ccccc2)(c2ccccc2)c2ccccc2)O[C@@H]2O[C@@]3(C)CC[C@H]4[C@H](C)CC[C@@H]1[C@@]24OO3 | 13 | 29.3 | 27.5 | 16.1 | 6.6 | 5.6 | – | – | – | – | –
6 | C[C@H]1[C@H](OC(=O)CCC[P+](c2ccccc2)(c2ccccc2)c2ccccc2)O[C@@H]2O[C@@]3(C)CC[C@H]4[C@H](C)CC[C@@H]1[C@@]24OO3 | 34.2 | 115 | 116 | 35.7 | 15.8 | 12.2 | – | – | – | – | –
7 | O=C(O)CCCC[P+](c1ccccc1)(c1ccccc1)c1ccccc1.[Br-] | – | – | – | – | – | – | 1.55 | 92 | 5.81 | 0.625 | –
8 | C[C@H]1[C@H](OC(=O)CCCCC[P+](c2ccccc2)(c2ccccc2)c2ccccc2)O[C@@H]2O[C@@]3(C)CC[C@H]4[C@H](C)CC[C@@H]1[C@@]24OO3.[Br-] | 11.9 | 13.9 | 9.1 | 5.3 | 7.1 | 2.7 | – | – | – | – | Ratio IC50 (A549 [9]): 4.8
9 | C[C@H]1[C@H](OC(=O)CC[P+](c2ccccc2)(c2ccccc2)c2ccccc2)O[C@@H]2O[C@@]3(C)CC[C@H]4[C@H](C)CC[C@@H]1[C@@]24OO3 | 62.7 | 78.8 | 66.5 | 1.2 | 35.7 | 26.5 | – | – | – | – | –
